Experimental data from patent US4210638A, “Antiviral composition and method of treating virus diseases” (PCR, Inc., priority 1978, dated 1980).
Where “and” joins values, the source holds several entries; their conditions need not be identical. Equal values may be shown once. Read-outs that look alike come from different tables or passages of the source.

What was measured:
[1] = system: HEp-2 cells; experiment: Cytotoxicity vs HEp-2 cells (colony formation, % survival); conditions: for % Survival: 2880 min
[2] = as above; conditions: human, hep-2 cells; for viability at 48 h, 60 µM: % S of HEp-2 cells, 0.06 mM; for viability at 48 h, 3 µM: 0.003 mM; for viability at 48 h, 30 µM: 0.03 mM; for viability at 48 h, 300 µM: 0.3 mM
[3] = molecular target: T1, HSV-2 induced pyrimidine deoxyribonucleoside kinase (Human herpesvirus 2 strain HG52, UniProt P89446); experiment: Phosphorylation by HSV-2 induced pyrimidine deoxyribonucleoside kinase; type: biochemical
T1 construct: preparation not described in the excerpts
Excerpt: The following spots were eluted into H2 O and scanned from 225 to 350 nm: (a) standard, (b) F3 methyl dC standard, […] spot after cytidine deaminase treatment of F3 dT and […] spot after cytidine deaminase treatment of F3 methyl dC. The u.v. absorption profile of F3 dT derived from deamination of F3 methyl dC is identical to that obtained from authentic F3 dT.
Solutions a, c, and d, above, were adjusted to the same O. D. and used as substrates for HSV-2 induced pyrimidine deoxyribonucleoside kinase. Results:
Stock solutions of F3 dT and F3 methyl dC were made up and adjusted to the same concentration as the F3 dT and F3 methyl dC purified chromatographically (solutions a and b, respectively). Usually, F3 methyl dC is phosphorylated 1/6 of the extent that F3 dT is phosphorylated. […] This experiment was performed twice. Results:
Values for chromatographically purified samples are probably lower due to impurities arising from non-acid washed paper.

[4] = Incubation with acetate buffer (pH 4.5); type: physicochemical; conditions: 9 hours
Protocol: (§1) The results of incubation with HNO2 (pH 4.5) at room temperature were identical to those obtained above.

[5] = Survival / toxicity in the mouse; conditions: in vivo
Protocol: That is, 3 mg/kg body weight to 75 mg/kg body weight; for example, about 10 mg/kg body weight per day for 7 days or 700 mg for a 70 kg man per day for 7 days. […] 100 percent survival was obtained with a dose of 50 mg.

[6] = system: HSV-2; experiment: Antiviral activity vs HSV-2 in HEp-2 cells (plaque assay in BHK cells); type: cell-based; conditions: for Average Log10 S.F.: +H4 U
Protocol: (§2) The culture medium containing the nucleoside analogs at varying concentrations are added to the infected cultures. In the case of HEp-2 cells which contain high deaminase levels, H4 U is incorporated into the medium. At 48 hours, virus is harvested from the cultures by freezing and thawing. The virus produced from each culture is titred by plaque assay in BHK cells. By using this protocol the antiviral effectiveness of F3 methyl dC can be compared directly with the effectiveness of other antiviral agents. Furthermore, by including H4 U in the medium, the effectiveness of F3 methyl dC can be determined without deamination at the nucleoside level.

[7] = system: Herpes-varicella-zoster virus (VZV); experiment: Antiviral activity against cells infected with Herpes-varicella-zoster virus; type: cell-based
[8] = system: cytidine deaminase; experiment: Incubation with crude cytidine deaminase extract of HEP-2 cells (deamination); type: in vitro ADME, human; conditions: crude HEP-2 cytidine deaminase extract; Whatman 3MM chromatography
[9] = Solubility; type: physicochemical
[10] = system: HSV-1; experiment: Antiviral activity vs HSV-1 in HEp-2 cells (plaque assay in BHK cells); type: cell-based; conditions: for Log10 S.F. vs HSV-1: + H4 U (from FIG. 3)
Protocol: as §2

[11] = Incubation with HNO2 (pH 4.5) at room temperature; type: physicochemical; conditions: 9 hours
Protocol: as §1

[12] = Metabolic stability; conditions: versus prior antiviral agents
[13] = % Survival, +H4 U 500 μg/ml (experiment 3 and 4)

T1 sequence (P89446 whole entry): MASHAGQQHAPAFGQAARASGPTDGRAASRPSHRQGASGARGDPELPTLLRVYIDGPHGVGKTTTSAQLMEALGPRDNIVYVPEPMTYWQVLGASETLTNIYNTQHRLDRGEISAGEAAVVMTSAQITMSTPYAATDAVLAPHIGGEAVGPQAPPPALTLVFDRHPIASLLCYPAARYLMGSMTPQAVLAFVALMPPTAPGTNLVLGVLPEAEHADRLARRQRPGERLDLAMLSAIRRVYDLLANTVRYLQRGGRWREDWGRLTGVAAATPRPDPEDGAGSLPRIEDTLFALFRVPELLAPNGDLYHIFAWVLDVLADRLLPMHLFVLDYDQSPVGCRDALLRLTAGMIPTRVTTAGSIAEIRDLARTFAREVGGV

For `Nc1nc(=O)n([C@H]2C[C@H](O)[C@@H](CO)O2)cc1C(F)(F)F` [F3 methyl dC, 5-trifluoromethyl-2'-deoxycytidine], the “% Survival” value ([1]; 0.003 mM, +H4 U 100 μg/ml (experiment 1 and 2), 3 µM) was 93%, the “% Survival” value ([1]; 0.003 mM, +H4 U 500 μg/ml (experiment 3 and 4), 3 µM) was 61% and the “% Survival” value ([1]; 0.003 mM, -H4 U, 3 µM) was 3% and 0.1% and 0.6%. For the same compound, the “% Survival” value ([1]; 0.03 mM, +H4 U 500 μg/ml (experiment 3 and 4), 30 µM) was 31%, the “cytotoxicity at concentrations with antiviral activity” value ([1]; +H4 U) was “only marginally cytotoxic” and the “increased survival with H4 dU than with H4 U” value ([1]; F3 methyl dC with H4 dU versus with H4 U) was ~5 fold. The therapeutic index ([1]; with H4 U, HSV-2 vs HEp-2 cytotoxicity) was “high therapeutic index”, the “cytotoxicity at concentrations with antiviral activity” value ([1]; without H4 U) was “extremely cytotoxic” and the “cytotoxicity at effective antiviral concentrations” value ([1]; ±H4 U (summary of Table IV)) was “marginal to only moderate cytotoxicity”. For the same compound, the viability at 48 h, 60 µM ([2]; +2'dH4 U 500 μg/ml) was 50 ± 5%, the viability at 48 h, 60 µM ([2]; +H4 U 500 μg/ml) was 9 ± 3% and the viability at 48 h, 60 µM ([2]; no addition) was < 0.006%. The viability at 48 h, 3 µM ([2]; % Survival, +H4 U 100 μg/ml (experiment 1 and 2)) was 100%, the viability at 48 h, 3 µM [2, 13] was 53% and the viability at 48 h, 30 µM [2, 13] was 25%. It also gave a viability at 48 h, 300 µM [2, 13] of 0.001%, a viability at 48 h, 3 µM ([2]; Average % S, +H4 U, average) of 77% and a viability at 48 h, 3 µM ([2]; Average % S, -H4 U, average) of 0.95%. The viability at 48 h, 30 µM ([2]; Average % S, +H4 U, average) was 32%, the viability at 48 h, 30 µM ([2]; Average % S, -H4 U, average) was < 0.01% and the viability at 48 h, 300 µM ([2]; Average % S, +H4 U, average) was < 0.01%. For the same compound, the viability at 48 h, 300 µM ([2]; Average % S, -H4 U, average) was < 0.01%, the “ratio of phosphorylation relative to F3 dT” value ([3]; chromatographically purified) was “Approx 1/3” and the “nmoles phosphorylated/4 hrs” value ([3]; chromatographically purified, value in parentheses (experiment performed twice)) was 0.06 nmoles/4 hrs. For the same compound, the “nmoles phosphorylated/4 hrs” value ([3]; chromatographically purified, value outside parentheses) was 0.04 nmoles/4 hrs, the “ratio of phosphorylation relative to F3 dT” value ([3]; standard solutions) was “Approx 1/4” and the “nmoles phosphorylated/4 hrs” value ([3]; standard solutions, value in parentheses (experiment performed twice)) was 0.08 nmoles/4 hrs. For the same compound, the “nmoles phosphorylated/4 hrs” value ([3]; standard solutions, value outside parentheses) was 0.48 nmoles/4 hrs, the “extent of phosphorylation relative to F3 dT” value ([3]; usual value) was 1/6 and the “modification in acetate buffer” value [4] was “did not lead to modification”. It also gave a survival at 168 h ([5]; 50 mg/kg/day for 7 days, coadministered with H4 U) of 100%, a survival at 168 h ([5]; 250 mg/kg once per day for 7 days, H4 U coadministered one hour prior) of 60% and an LD50 at 168 h ([5]; coadministered with H4 U, for 7 days) of 325 mg/kg. The “Log10 Surviving Fraction of Plaque Forming Units” value ([6]; 0.003 mM, +H4 U 500 μg/ml (experiment 3 and 4)) was -1.9, the “Average Log10 S.F.” value ([6]; 0.003 mM, average) was -1.7 and the “Average Log10 S.F.” value ([6]; 0.03 mM, average) was -3.6. The “Log10 Surviving Fraction of Plaque Forming Units” value ([6]; 0.3 mM, +H4 U 100 μg/ml (experiment 1 and 2)) was -3.7, the “Average Log10 S.F.” value ([6]; 0.3 mM, average) was -3.7 and the log reduction at 3 µM ([6]; Human alphaherpesvirus 2, 48 h, 0.003 mM, -H4 U, average, read-out: Average Log10 S.F.) was 0.94. It also gave a log reduction at 30 µM ([6]; Human alphaherpesvirus 2, 48 h, 0.03 mM, +2'dH4 U 500 μg/ml, read-out: Log10 S.F. HSV-2) of 3.5, a log reduction at 30 µM ([6]; Human alphaherpesvirus 2, 48 h, 0.03 mM, +H4 U 500 μg/ml, read-out: Log10 S.F. HSV-2) of 3.4 and a log reduction at 30 µM ([6]; Human alphaherpesvirus 2, 48 h, 0.03 mM, -H4 U, average, read-out: Average Log10 S.F.) of 3.2. It also gave a log reduction at 30 µM ([6]; Human alphaherpesvirus 2, 48 h, 0.03 mM, no addition, read-out: Log10 S.F. HSV-2) of 3.3, a log reduction at 300 µM ([6]; Human alphaherpesvirus 2, 48 h, 0.3 mM, -H4 U, average, read-out: Average Log10 S.F.) of 3.7 and a log reduction at 300 µM ([6]; Human alphaherpesvirus 2, 48 h, 0.3 mM, -H4 U, read-out: Log10 Surviving Fraction of Plaque Forming Units) of 3.7. The log reduction at 30 µM ([6]; Human alphaherpesvirus 2, 48 h, read-out: Log10 Surviving Fraction of Plaque Forming Units, 0.03 mM, -H4 U) was 3.1, the “antiviral activity against cells infected with VZV” value [7] was “selective antiviral activity” and the “chromatographic change on incubation with cytidine deaminase” value [8] was “formation of an Rf =0.43 spot and disappearance of the 0.80 spot”. For the same compound, the “solubility in DMSO” value ([9]; DMSO) was “a solvent for the F3 methyl dC”, the solubility in acetone ([9]; acetone) was “insoluble in acetone” and the solubility in water ([9]; water) was “partially soluble in water”. For the same compound, the “Log10 S.F. vs HSV-1” value ([10]; 0.003 mM) was -4.2, the “Log10 S.F. vs HSV-1” value ([10]; 0.03 mM) was < -4.6 and the “antiviral activity vs HSV-1 compared with F3 dT±H4 U” value ([10]; ±H4 U (FIG. 3)) was “more potent antiviral activity than F3 dT±H4 U”. The “conversion to a product that has the same Rf as F3 dT” value [11] was “approximately 98%” and the metabolic stability [12] was “substantially increased metabolic stability”.
